{
  "source": "patent US20140371262A1",
  "about": "“PREVENTIVE AND/OR THERAPEUTIC AGENT FOR THROMBOEMBOLISM IN THROMBOEMBOLISM PATIENT WITH SEVERE RENAL IMPAIRMENT” (Daiichi Sankyo Company, Limited, priority 2011, published 2014)",
  "key": {"NVAF patients": {"tested_on": "NVAF patients", "assay": "Late phase-II trial targeting NVAF patient in Japan (thromboembolic and bleeding events, 12 weeks)", "format": "in vivo, human", "settings": "warfarin group (PT-INR adjusted to 2.0 to 3.0; 1.6 to 2.6 for 70 years or older), 12 weeks"}, "[1]": {"tested_on": "patients with moderate to-high-risk atrial fibrillation", "assay": "ENGAGE-AF TIMI-48 phase 3 study of edoxaban versus warfarin in atrial fibrillation"}, "[2]": {"settings": "subgroup whose CLCR had become <30 mL/min during the trial, edoxaban 15 mg (N = 349), warfarin dose adjusted (N = 367)"}, "[3]": {"settings": "warfarin, dose-adjusted to INR 2.0 to 3.0"}},
  "data": [
    {"smiles": "CC(=O)CC(c1ccccc1)c1c(O)c2ccccc2oc1=O", "note": "(stereo not shown) [warfarin, reference compound]", "values": [
      {"measurement": "Incidence of bleeding events (major, clinically relevant non-major and minor bleeding in total)", "setting": "NVAF patients", "result": 20.0, "unit": "%"},
      {"measurement": "ACM (all cause mortality): # of events", "setting": "[1]; [2]", "result": 13},
      {"measurement": "Disabling Stroke: # of events", "setting": "[1]; [2]", "result": 3},
      {"measurement": "Disabling Stroke: Event Rate", "setting": "[1]; [2]", "result": 0.48, "unit": "%/yr"},
      {"measurement": "Fatal Bleed: # of events", "setting": "[1]; [2]", "result": 2},
      {"measurement": "Fatal Bleed: Event Rate", "setting": "[1]; [2]", "result": 0.32, "unit": "%/yr"},
      {"measurement": "Fatal SEE: # of events", "setting": "[1]; [2]", "result": 0},
      {"measurement": "Fatal SEE: Event Rate", "setting": "[1]; [2]", "result": 0.00, "unit": "%/yr"},
      {"measurement": "Fatal Stroke: # of events", "setting": "[1]; [2]", "result": 3},
      {"measurement": "Fatal Stroke: Event Rate", "setting": "[1]; [2]", "result": 0.48, "unit": "%/yr"},
      {"measurement": "First Disabling or Fatal Stroke, Fatal SEE, LT or Fatal Bleed, or ACM: # of events", "setting": "[1]; [2]", "result": 21},
      {"measurement": "First Disabling or Fatal Stroke, Fatal SEE, LT or Fatal Bleed, or ACM: Event Rate", "setting": "[1]; [2]", "result": 3.36, "unit": "%/yr"},
      {"measurement": "First Stroke, SEE or TIA: # of events", "setting": "[1]; [2]", "result": 14},
      {"measurement": "First Stroke, SEE or TIA: Event Rate", "setting": "[1]; [2]", "result": 2.26, "unit": "%/yr"},
      {"measurement": "First Stroke, SEE, Major Bleed, or ACM: # of events", "setting": "[1]; [2]", "result": 49},
      {"measurement": "First Stroke, SEE, Major Bleed, or ACM: Event Rate", "setting": "[1]; [2]", "result": 8.04, "unit": "%/yr"},
      {"measurement": "LT Bleed (life threatening): # of events", "setting": "[1]; [2]", "result": 5},
      {"measurement": "LT Bleed (life threatening): Event Rate", "setting": "[1]; [2]", "result": 0.80, "unit": "%/yr"},
      {"measurement": "Annualized rate of death from cardiovascular causes", "setting": "[1]; [3]", "result": 3.17, "unit": "%"},
      {"measurement": "Annualized rate of major bleeding", "setting": "[1]; [3]", "result": 3.43, "unit": "%"},
      {"measurement": "Annualized rate of the primary end point (stroke or systemic embolism) during treatment", "setting": "[1]; [3]", "result": 1.50, "unit": "%"},
      {"measurement": "Rate of the key secondary end point (composite of stroke, systemic embolism, or death from cardiovascular causes)", "setting": "[1]; [3]", "result": 4.43, "unit": "%"}
    ]}
  ]
}
